The record followed here is US5889020A, “Treatment of normotensive glaucoma with angiotensin II antagonists” (CIBA Vision Corporation, priority 1994, dated 1999).

The test system of assay [1] is perfused isolated pig's eye. Put plainly: Ophthalmic flow in the perfused isolated pig's eye. How it is done:
For the perfusion method on the isolated pig's eye, the fatty tissue which surrounds the extraocular muscles is carefully removed. During this preparation, the ocular globe is surrounded with modified Krebs-Ringer bicarbonate solution at 4° C. The ocular globe is then cannulated under the microscope using a polyethylene cannula (600 μm diameter), namely via the common ophthalmic artery.
Following this preparation, the ocular globe is connected via the polyethylene cannula to a Langendorff perfusion system, and in this way supplied at the latest 1 hour after the start of preparation with a filtered and oxygenated Krebs solution which contains 0.5% albumin.
The catheterization of the common ophthalmic artery guarantees the complete perfusion both of the choroidal and of the retinal tissue and of the small extraocular muscular arteries. The perfused ocular globe is immersed in a thermostated (37° C.) control bath with a glass jacket with the cornea pointed downwards. The overflow rate (ml/min) in the bath corresponds to the ophthalmic flow. Before testing a composition, the ocular globe is equilibrated for 20 minutes. In a control experiment, it is shown that the ophthalmic flow in the experimental procedure selected remains constant for about 120 minutes after the start of the perfusion. All tests are therefore carried out within this time frame.
A perfused isolated pig's eye is first treated as described above with a control solution and then with a solution comprising angiotensin II (10^-6 M). After the determination of the angiotensin II effect, valsartan (10^-5 M) is additionally added on top of the above exposure. The relative ophthalmic flow rate resulting in this way is shown below.

The next assay deals with ciliary artery. Put plainly: Ciliary artery contraction, myograph method (tissue ring contracted with angiotensin II). On the set-up: species or system pig. From the text:
For the myographic determinations, a short segment (7-8 mm) of the ciliary arteries of fresh eyes, e.g. pig's eyes, is dissected and cut into small rings of thickness 2 mm under a microscope (cf. for this K. Yao et al. Invest. Ophthalmaol. Vis. Sci. 32, 1791-1798(1991) and M. J. Mulvany, W. Halpern Circ. res. 41, 19-26(1977)). During the preparation, the tissue is immersed in modified Krebs-Ringer bicarbonate solution. These rings (diameter about 200-400 μm) are installed in the myograph system without delay. Such a tissue ring is stretched using two tungsten wires (diameters 30 and 80 μm), the wires being passed through the lumen. One wire is connected to the power transmission, the other to a micromanipulator for adjustment of muscle length. The tissue ring is immersed in a control solution during the experiment (37°; 95% O2; 5% CO2; pH=7.4) and equilibrated for 45 minutes before testing.
The tissue ring is stretched stepwise and at the same time 100 mM KCl is added in each case. The optimum passive tension is then defined as the tension at which the contraction with 100 mM KCl is greatest. For ciliary arteries, an averaged value for the tension of 977 mg±60 mg is found. The active residual tone of this tissue is defmed as the difference between the optimum passive tension and the tension after a maximum relaxation with 10^-6 molar bradykinin. The corresponding tension is 174 mg±38 mg. In all subsequent experiments, the abovementioned tissue rings are slowly stretched at 100 mg intervals until the optimum is reached.
Before the actual experiment, the endothelial function of such a tissue ring is checked for intactness. The tissue rings are challenged to contract by using 3. 10^-7 molar serotonin solution and in the experimental procedure described above. Thereafter it is checked whether a complete relaxation of the contracted tissue ring occurs with 3. 10^-7 molar bradykinin solution. If this condition is fulfilled, the tissue is held to be intact.
Determination of the ciliary artery contraction using the myograph method
After it was verified as described above that the endothelial functions of a tissue ring of a ciliary artery are intact, the tissue ring preparation is incubated (contracted) with 10^-7 M angiotensin II, and then relaxed with various doses of the angiotensin II antagonist valsartan.

As to `CCCCC(=O)N(Cc1ccc(-c2ccccc2-c2nn[nH]n2)cc1)[C@H](C(=O)O)C(C)C` [valsartan], the “Decrease in the relative ophthalmic flow” value in assay [1] (angiotensin II 10^-6 M plus valsartan 10^-5 M) was 6.82 ± 3.02%. Further, the “Blood flow-decreasing action of angiotensin II” value in assay [1] (valsartan 10^-5 M on top of angiotensin II 10^-6 M) is “strongly reduced”. The “Relative contraction in comparison to 100 mM KCl” value in the assay with ciliary artery (ciliary artery ring contracted with 10^-7 M angiotensin II, valsartan 10^-5 M) is given as 0.9 ± 0.45%; in the assay with ciliary artery (ciliary artery ring contracted with 10^-7 M angiotensin II, valsartan 10^-6 M), 0.93 ± 0.4%; in the assay with ciliary artery (ciliary artery ring contracted with 10^-7 M angiotensin II, valsartan 10^-7 M), 5.15 ± 1.6%; in the assay on ciliary artery (ciliary artery ring contracted with 10^-7 M angiotensin II, valsartan 10^-8 M), 8.1 ± 1.5%; in the assay with ciliary artery (ciliary artery ring contracted with 10^-7 M angiotensin II, valsartan 10^-9 M), 18.7 ± 2.2%. Besides, the “Contracting effect of angiotensin II on the ciliary artery” value in the assay with ciliary artery (valsartan added after 10^-7 M angiotensin II) is “quantitatively abolished”.
Turning to “Angiotensin II: contracting agonist used to contract the ciliary artery and decrease ophthalmic flow (DRVYIHPF; Angiotensin-2; UniProt P01019 25-32, looked up)”, the “Decrease in the relative ophthalmic flow” value in assay [1] (angiotensin II 10^-6 M alone) is given as 24.5 ± 3.05%. Also, the “Relative contraction in comparison to 100 mM KCl” value with ciliary artery (10^-7 M angiotensin II alone, no valsartan (pure angiotensin II effect)) came to 27.9 ± 8.7%.
